# From patent US8680113B2, “BMI-1 protein expression modulators” (PTC Therapeutics, Inc., priority 2008, dated 2014)
# Tested on: Bmi-1
# Experiment: Sandwich ELISA Assay (Bmi-1 ELISA in HT-1080 cells)
# Format: cell-based, human
# How it was run: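 Lysate Bmi-1 was quantified against a recombinant GST-Bmi-1 standard (0-8000 pg/mL) by sandwich ELISA read at OD450 with OD570 reference. The ELISA used mouse monoclonal capture, rabbit anti-Bmi-1, HRP anti-rabbit IgG and TMB. Before lysis, HT-1080 cells seeded at 8000/well were exposed to compounds for 40-48 h at 37°C with 0.5% final DMSO.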
row,SMILES,IC50 [µM]
1,"Cc1cc(Br)ccc1Nc1nc(-c2c(C)nc3ccc(Cl)cn23)cs1 [Cpd 216, N-(4-bromo-2-methylphenyl)-4-(6-chloro-2-methylimidazo[1,2-a]pyridin-3-yl)-1,3-thiazol-2-amine]",< 0.5
2,"Cc1nc2ccc(Cl)cn2c1-c1csc(Nc2ccc(Cl)cc2Cl)n1 [Cpd 218, 4-(6-chloro-2-methylimidazo[1,2-a]pyridin-3-yl)-N-(2,4-dichlorophenyl)-1,3-thiazol-2-amine]",< 0.5
3,"Cc1nc2ccc(Cl)cn2c1-c1csc(Nc2ccc3c(c2)OC(C)(C)O3)n1 [Cpd 219, 4-(6-chloro-2-methylimidazo[1,2-a]pyridin-3-yl)-N-(2,2-dimethyl-1,3-benzodioxol-5-yl)-1,3-thiazol-2-amine]",< 0.5
4,"Cc1nc2c(Cl)cc(Cl)cn2c1-c1csc(Nc2ccc3c(c2)OCO3)n1 [Cpd 220, N-(1,3-benzodioxol-5-yl)-4-(6,8-dichloro-2-methylimidazo[1,2-a]pyridin-3-yl)-1,3-thiazol-2-amine]",< 0.5
5,"Cc1nc2ccc(F)cn2c1-c1csc(Nc2c(Br)cccc2Br)n1 [Cpd 239, N-(2,6-dibromophenyl)-4-(6-fluoro-2-methylimidazo[1,2-a]pyridin-3-yl)-1,3-thiazol-2-amine]",< 0.5
6,"Cc1nc2cc(Cl)ccn2c1-c1csc(Nc2ccc(Cl)cc2)n1 [Cpd 240, 4-(7-chloro-2-methylimidazo[1,2-a]pyridin-3-yl)-N-(4-chlorophenyl)-1,3-thiazol-2-amine]",< 0.5
7,"CC(=O)c1ccc(Nc2nc(-c3c(C)nc4cc(Cl)ccn34)cs2)cc1 [Cpd 244, 1-(4-{[4-(7-chloro-2-methylimidazo[1,2-a]pyridin-3-yl)-1,3-thiazol-2-yl]amino}phenyl)ethanone]",< 0.5
8,"COc1ccc(Nc2nccc(-c3cnc4ccccn34)n2)cc1 [Cpd 245, 4-(imidazo[1,2-a]pyridin-3-yl)-N-(4-methoxyphenyl)pyrimidin-2-amine]",< 0.5
9,"Clc1cccc(Nc2nccc(-c3cnc4ccccn34)n2)c1 [Cpd 246, N-(3-chlorophenyl)-4-(imidazo[1,2-a]pyridin-3-yl)pyrimidin-2-amine]",< 0.5
10,"Clc1ccccc1Nc1nccc(-c2cnc3ccccn23)n1 [Cpd 247, N-(2-chlorophenyl)-4-(imidazo[1,2-a]pyridin-3-yl)pyrimidin-2-amine]",0.5 to 1
11,"Fc1ccc(Nc2nccc(-c3cnc4ccccn34)n2)cc1 [Cpd 248, N-(4-fluorophenyl)-4-(imidazo[1,2-a]pyridin-3-yl)pyrimidin-2-amine]",< 0.5
12,"COc1cc(Br)c(Nc2nccc(-c3cnc4ccccn34)n2)c(Br)c1 [Cpd 249, N-(2,6-dibromo-4-methoxyphenyl)-4-(imidazo[1,2-a]pyridin-3-yl)pyrimidin-2-amine]",< 0.5
13,"CC(=O)c1ccc(Nc2nccc(-c3cnc4ccccn34)n2)cc1 [Cpd 250, 1-(4-{[4-(imidazo[1,2-a]pyridin-3-yl)pyrimidin-2-yl]amino}phenyl)ethanone]",< 0.5
14,"c1ccn2c(-c3ccnc(Nc4ccc5c(c4)OCO5)n3)cnc2c1 [Cpd 251, N-(1,3-benzodioxol-5-yl)-4-(imidazo[1,2-a]pyridin-3-yl)pyrimidin-2-amine]",< 0.5
15,"CCOc1ccc(Nc2nccc(-c3cnc4ccccn34)n2)cc1 [Cpd 252, N-(4-ethoxyphenyl)-4-(imidazo[1,2-a]pyridin-3-yl)pyrimidin-2-amine]",< 0.5
16,"CCN(CC)c1ccc(Nc2nccc(-c3cnc4ccccn34)n2)cc1 [Cpd 253, N,N-diethyl-N′-[4-(imidazo[1,2-a]pyridin-3-yl)pyrimidin-2-yl]benzene-1,4-diamine]",< 0.5
17,"CN(C)c1ccc(Nc2nccc(-c3cnc4ccccn34)n2)cc1 [Cpd 254, N′-[4-(imidazo[1,2-a]pyridin-3-yl)pyrimidin-2-yl]-N,N-dimethylbenzene-1,4-diamine]",< 0.5
18,"Fc1cccc(Nc2nccc(-c3cnc4ccccn34)n2)c1 [Cpd 255, N-(3-fluorophenyl)-4-(imidazo[1,2-a]pyridin-3-yl)pyrimidin-2-amine]",< 0.5
19,"Brc1cccc(Nc2nccc(-c3cnc4ccccn34)n2)c1 [Cpd 256, N-(3-bromophenyl)-4-(imidazo[1,2-a]pyridin-3-yl)pyrimidin-2-amine]",< 0.5
20,"COc1cc(Br)c(Nc2nccc(-c3cnc4ncccn34)n2)c(Br)c1 [Cpd 257, N-(2,6-dibromo-4-methoxyphenyl)-4-(imidazo[1,2-a]pyrimidin-3-yl)pyrimidin-2-amine]",< 0.5
21,"c1cnc2ncc(-c3ccnc(Nc4ccc5c(c4)OCO5)n3)n2c1 [Cpd 259, N-(1,3-benzodioxol-5-yl)-4-(imidazo[1,2-a]pyrimidin-3-yl)pyrimidin-2-amine]",< 0.5
22,"COc1cccc(Nc2nccc(-c3cnc4ncccn34)n2)c1 [Cpd 260, 4-(imidazo[1,2-a]pyrimidin-3-yl)-N-(3-methoxyphenyl)pyrimidin-2-amine]",< 0.5
23,"COc1ccc(Nc2nccc(-c3cnc4ncccn34)n2)cc1 [Cpd 261, 4-(imidazo[1,2-a]pyrimidin-3-yl)-N-(4-methoxyphenyl)pyrimidin-2-amine]",< 0.5

# Results, then the compound that gave them:
row,IC50 [µM],SMILES
1,< 0.5,"COc1cccc(Nc2nc(-c3c(C)nc4ccc(Cl)cn34)cs2)c1 [Cpd 217, 4-(6-chloro-2-methylimidazo[1,2-a]pyridin-3-yl)-N-(3-methoxyphenyl)-1,3-thiazol-2-amine]"
2,< 0.5,"Cc1nc2c(C)cccn2c1-c1csc(Nc2ccc(N(C)C)cc2)n1 [Cpd 221, N′-[4-(2,8-dimethylimidazo[1,2-a]pyridin-3-yl)-1,3-thiazol-2-yl]-N,N-dimethylbenzene-1,4-diamine]"
3,< 0.5,"COc1ccc(Nc2nc(-c3c(C)nc4c(C)cccn34)cs2)cc1 [Cpd 222, 4-(2,8-dimethylimidazo[1,2-a]pyridin-3-yl)-N-(4-methoxyphenyl)-1,3-thiazol-2-amine]"
4,< 0.5,"Cc1ccc(Nc2nc(-c3c(C)nc4c(C)cccn34)cs2)cc1 [Cpd 223, 4-(2,8-dimethylimidazo[1,2-a]pyridin-3-yl)-N-(4-methylphenyl)-1,3-thiazol-2-amine]"
5,< 0.5,"Cc1nc2c(C)cccn2c1-c1csc(Nc2ccc(Cl)cc2)n1 [Cpd 224, N-(4-chlorophenyl)-4-(2,8-dimethylimidazo[1,2-a]pyridin-3-yl)-1,3-thiazol-2-amine]"
6,< 0.5,"COc1cccc(Nc2nc(-c3c(C)nc4c(C)cccn34)cs2)c1 [Cpd 225, 4-(2,8-dimethylimidazo[1,2-a]pyridin-3-yl)-N-(3-methoxyphenyl)-1,3-thiazol-2-amine]"
7,< 0.5,"Cc1nc2c(C)cccn2c1-c1csc(Nc2ccc3c(c2)OCO3)n1 [Cpd 226, N-(1,3-benzodioxol-5-yl)-4-(2,8-dimethylimidazo[1,2-a]pyridin-3-yl)-1,3-thiazol-2-amine]"
8,< 0.5,"Cc1nc2c(Br)cccn2c1-c1csc(Nc2ccc(N(C)C)cc2)n1 [Cpd 227, N′-[4-(8-bromo-2-methylimidazo[1,2-a]pyridin-3-yl)-1,3-thiazol-2-yl]-N,N-dimethylbenzene-1,4-diamine]"
9,< 0.5,"COc1ccc(Nc2nc(-c3c(C)nc4c(Br)cccn34)cs2)cc1 [Cpd 228, 4-(8-bromo-2-methylimidazo[1,2-a]pyridin-3-yl)-N-(4-methoxyphenyl)-1,3-thiazol-2-amine]"
10,< 0.5,"Cc1ccc(Nc2nc(-c3c(C)nc4c(Br)cccn34)cs2)cc1 [Cpd 229, 4-(8-bromo-2-methylimidazo[1,2-a]pyridin-3-yl)-N-(4-methylphenyl)-1,3-thiazol-2-amine]"
11,< 0.5,"Cc1nc2c(Br)cccn2c1-c1csc(Nc2ccc(Cl)cc2)n1 [Cpd 230, 4-(8-bromo-2-methylimidazo[1,2-a]pyridin-3-yl)-N-(4-chlorophenyl)-1,3-thiazol-2-amine]"
12,< 0.5,"Cc1nc2c(Br)cccn2c1-c1csc(Nc2ccccc2)n1 [Cpd 231, 4-(8-bromo-2-methylimidazo[1,2-a]pyridin-3-yl)-N-phenyl-1,3-thiazol-2-amine]"
13,< 0.5,"COc1cccc(Nc2nc(-c3c(C)nc4c(Br)cccn34)cs2)c1 [Cpd 232, 4-(8-bromo-2-methylimidazo[1,2-a]pyridin-3-yl)-N-(3-methoxyphenyl)-1,3-thiazol-2-amine]"
14,< 0.5,"Cc1nc2c(Br)cccn2c1-c1csc(Nc2ccccc2Cl)n1 [Cpd 233, 4-(8-bromo-2-methylimidazo[1,2-a]pyridin-3-yl)-N-(2-chlorophenyl)-1,3-thiazol-2-amine]"
15,< 0.5,"COc1ccccc1Nc1nc(-c2c(C)nc3c(Br)cccn23)cs1 [Cpd 234, 4-(8-bromo-2-methylimidazo[1,2-a]pyridin-3-yl)-N-(2-methoxyphenyl)-1,3-thiazol-2-amine]"
16,< 0.5,"Cc1nc2c(Br)cccn2c1-c1csc(Nc2ccc3c(c2)OCO3)n1 [Cpd 235, N-(1,3-benzodioxol-5-yl)-4-(8-bromo-2-methylimidazo[1,2-a]pyridin-3-yl)-1,3-thiazol-2-amine]"
17,< 0.5,"COc1cccc(Nc2nc(-c3c(C)nc4ccc(F)cn34)cs2)c1 [Cpd 236, 4-(6-fluoro-2-methylimidazo[1,2-a]pyridin-3-yl)-N-(3-methoxyphenyl)-1,3-thiazol-2-amine]"
18,< 0.5,"Cc1ccc(Nc2nc(-c3c(C)nc4ccc(F)cn34)cs2)cc1 [Cpd 237, 4-(6-fluoro-2-methylimidazo[1,2-a]pyridin-3-yl)-N-(4-methylphenyl)-1,3-thiazol-2-amine]"
19,< 0.5,"COc1ccc(Nc2nc(-c3c(C)nc4cc(Cl)ccn34)cs2)cc1 [Cpd 241, 4-(7-chloro-2-methylimidazo[1,2-a]pyridin-3-yl)-N-(4-methoxyphenyl)-1,3-thiazol-2-amine]"
20,< 0.5,"Cc1nc2cc(Cl)ccn2c1-c1csc(Nc2ccc(N(C)C)cc2)n1 [Cpd 242, N′-[4-(7-chloro-2-methylimidazo[1,2-a]pyridin-3-yl)-1,3-thiazol-2-yl]-N,N-dimethylbenzene-1,4-diamine]"
21,< 0.5,"Cc1ccc(Nc2nc(-c3c(C)nc4cc(Cl)ccn34)cs2)cc1 [Cpd 243, 4-(7-chloro-2-methylimidazo[1,2-a]pyridin-3-yl)-N-(4-methylphenyl)-1,3-thiazol-2-amine]"
